Source: patent US7211576B2, “Diaminothiazoles” (Hoffmann-La Roche Inc., priority 2004, dated 2007)

How the values were obtained:
[1] = molecular target: human cyclin D1-CDK4 (Homo sapiens, UniProt P11802); experiment: FlashPlate kinase assay, cyclin D1-CDK4; type: biochemical; settings: Rb protein substrate, 1 μM ATP, 33P-ATP, 30 minutes room temperature; read-out: CDK4 IC50
Procedure: To determine inhibition of Cdk4, Cdk2 and Cdk1 activity, kinase assays were conducted using FlashPlate™ assays (NEN™-Life Science Products). FlashPlate assays were performed using recombinant human cyclin B-CDK1, human cyclin E-CDK2 or human cyclin D1-CDK4 complexes. GST-cyclinE (GST-cycE), CDK2, GST-cyclinB (GST-cycB), CDK1, GST-CDK4 and cyclin D1 (cycD1) cDNA clones in baculovirus vectors were provided by Dr. W. Harper at the Baylor College of Medicine, Houston, Tex.
(§1) The expression of the 62Kd protein was under the control of an IPTG inducible promoter in an M15 E. coli strain. Cells were lysed by sonication and purification was carried out by binding lysates at pH 8.0 to a Ni-chelated agarose column pretreated with 1 mM imidazole. The resin was then washed several times with incrementally decreasing pH buffers to pH 6.0, and eluted with 500 mM imidazole. Eluted protein was dialysed against 20 mM HEPES pH 7.5, 30% glycerol, 200 mM NaCl, and 1 mM DTT. Purified Rb fusion protein stocks were quantitated for protein concentration, aliquoted, and stored at −70° C.
(§2) For all three kinase assays reported herein, 96-well FlashPlates were coated with Rb protein at 10 μg/ml, using 100 μl per well. Plates were incubated at 4° C. overnight or at room temperature for 3 hours on a shaker. To control for nonspecific phosphorylation, one row of wells was coated with 100 μl/well coating buffer (20 mM HEPES, 0.2 M NaCl). Plates were then washed twice with wash buffer (0.01% Tween 20 in phosphate-buffered saline). Compounds to be tested (“test compounds”) were added to the wells at 5× final concentration. Reactions were initiated by immediate addition of 40 μl reaction mix (25 mM HEPES, 20 mM MgCl2, 0.002% Tween 20, 2 mM DTT, 1 μM ATP, 4 nM ^33P-ATP) and a sufficient amount of enzyme to give counts that were at least 10-fold above background. Plates were incubated at room temperature on a shaker for 30 minutes. Plates were washed four times with the wash buffer, sealed, and counted on the TopCount scintillation counter (Packard Instrument Co., Downers Grove, Ill.]. The percent inhibition of Rb phosphorylation, which is a measure of the inhibition of CDK activity, was determined according to the following formula:
[formula] where “test compound” refers to the average counts per minute of the test duplicates, “nonspecific” refers to the average counts per minute when no CyclinD/Cdk4, etc., was added, and “total” refers to the average counts per minute when no compound was added.

[2] = molecular target: human cyclin E-CDK2 (Homo sapiens, UniProt P24941); experiment: FlashPlate kinase assay, cyclin E-CDK2; type: biochemical; settings: Rb protein substrate, 1 μM ATP, 33P-ATP, 30 minutes room temperature
Procedure: (§3) To determine inhibition of Cdk4, Cdk2 and Cdk1 activity, kinase assays were conducted using FlashPlate™ assays (NEN™-Life Science Products). FlashPlate assays were performed using recombinant human cyclin B-CDK1, human cyclin E-CDK2 or human cyclin D1-CDK4 complexes. GST-cyclinE (GST-cycE), CDK2, GST-cyclinB (GST-cycB), CDK1, GST-CDK4 and cyclin D1 (cycD1) cDNA clones in baculovirus vectors were provided by Dr. W. Harper at the Baylor College of Medicine, Houston, Tex. Proteins were co-expressed in High Five™ insect cells and the complex was purified on glutathione Sepharose resin (Pharmacia, Piscataway, N.J.) as previously described (Harper, J. W. et al. Cell 1993, 75, 805–816). A 6×-Histidine tagged truncated form of retinoblastoma (Rb) protein (amino acid 386–928) was used as the substrate for the cycD1-CDK4, cycB-CDK1 and the cycE-CDK2 assays (the expression plasmid was provided by Dr. Veronica Sullivan, Department of Molecular Virology, Roche Research Centre, Welwyn Garden City, United Kingdom). The Rb protein is a natural substrate for phosphorylation by CDK4, CDK2 and CDK1 (see Herwig and Strauss Eur. J. Biochem. Vol. 246 (1997) pp. 581–601 and the references cited therein).
as §1, §2
(§4) [formula] where “test compound” refers to the average counts per minute of the test duplicates, “nonspecific” refers to the average counts per minute when no CyclinD/Cdk4, etc., was added, and “total” refers to the average counts per minute when no compound was added. The IC50 value is the concentration of test compound that reduces by 50% the protein-kinase induced incorporation of the radiolabel under the test conditions described.

[3] = molecular target: human cyclin B-CDK1 (Homo sapiens, UniProt P06493); experiment: FlashPlate kinase assay, cyclin B-CDK1; type: biochemical; settings: Rb protein substrate, 1 μM ATP, 33P-ATP, 30 minutes room temperature
Chain of human cyclin B-CDK1 (P06493 whole entry): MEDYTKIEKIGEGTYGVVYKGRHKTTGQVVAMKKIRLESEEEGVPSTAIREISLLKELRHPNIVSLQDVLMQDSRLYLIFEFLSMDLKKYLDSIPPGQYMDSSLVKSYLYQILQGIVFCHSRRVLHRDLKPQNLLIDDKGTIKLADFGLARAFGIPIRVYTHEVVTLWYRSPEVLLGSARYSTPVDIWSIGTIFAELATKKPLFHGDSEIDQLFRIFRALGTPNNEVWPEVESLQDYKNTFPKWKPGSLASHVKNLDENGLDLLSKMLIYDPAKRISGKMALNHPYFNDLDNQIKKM
Chain of human cyclin B-CDK1 (P14635 whole entry partner): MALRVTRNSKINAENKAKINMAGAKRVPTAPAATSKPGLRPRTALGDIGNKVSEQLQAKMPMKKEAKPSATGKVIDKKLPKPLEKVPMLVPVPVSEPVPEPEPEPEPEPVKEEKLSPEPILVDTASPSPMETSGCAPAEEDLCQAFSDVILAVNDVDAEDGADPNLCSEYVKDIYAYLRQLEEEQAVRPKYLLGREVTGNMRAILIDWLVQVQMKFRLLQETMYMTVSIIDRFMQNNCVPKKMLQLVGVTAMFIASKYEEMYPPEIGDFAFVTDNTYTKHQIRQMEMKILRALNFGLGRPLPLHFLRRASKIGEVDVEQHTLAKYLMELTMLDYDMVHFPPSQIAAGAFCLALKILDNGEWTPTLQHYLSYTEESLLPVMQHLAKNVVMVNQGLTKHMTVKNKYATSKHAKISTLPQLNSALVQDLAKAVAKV
Procedure: as §3, §1, §2, §4

[4] = test system: HCT116, a colorectal carcinoma cell line; experiment: Tetrazolium dye (MTT) proliferation assay; type: cell-based; settings: Homo sapiens, HCT-116; HCT116 cells, inhibition of cell proliferation
Procedure: Proliferation was evaluated by the tetrazolium dye assay according to the procedure of Denizot and Lang (Denizot, F. and Lang, R. J Immunol Methods 1986, 89, 271–277). The cell line used was HCT116, a colorectal carcinoma cell line obtained from the American Type Cell Culture Collection (ATCC; Rockville, Md.). The cells were grown in McCoy's 5A medium supplemented with 10% FCS and L-glutamine.
Cells were plated at the appropriate seeding density to give logarithmic growth over the course of the assay in a 96-well tissue culture plate. Plates were incubated overnight at 37° C. in a humidified incubator with 5% CO2. The next day, test compounds were serially diluted to four times the final concentration in the appropriate medium containing 1.2% DMSO. One-fourth final volume of each dilution was added in duplicate to the plates containing cells. The same volume of 1.2% DMSO in medium was added to a row of “control wells” such that the final concentration of DMSO in each well was 0.3%. Wells to which no cells were added served as the “blank.” Wells to which no inhibitor was added served as “no inhibitor control.” The plates were) returned to the incubator, and at set time points (determined by their growth curves) plates were analyzed as described below.
3-(4,5-dimethylthiazole-2-yl)-2,5-diphenyl-2H-tetrazolium bromide (thiazolyl blue; MTT; Sigma) was added to each well to yield a final concentration of 1 mg/ml. Plates were returned to the incubator for 2.5–3 hours at 37° C. The MTT-containing medium was removed and the resulting formazan metabolite was solubilized in 100% ethanol with shaking for 15 minutes at room temperature. Absorbance readings were taken in a microtiter plate reader (Dynatech and Molecular Devices plate readers were used interchangeably) at a wavelength of 570 nm with a 650 nm reference. Percent inhibition (% INH) is calculated by subtracting the absorbance of the blank well from all wells, then subtracting the ratio of the average absorbance of each test duplicate (SAVE) by the average of the controls (CAVE) from 1.00. The final number is then multiplied by 100 (% INH=(1.00−SAVE/CAVE)×100). The concentration at which 50% inhibition of cell proliferation is obtained (the IC50) is determined from the linear regression of a plot of the logarithm of the concentration versus percent inhibition.

Chain of human cyclin D1-CDK4 (P11802 whole entry): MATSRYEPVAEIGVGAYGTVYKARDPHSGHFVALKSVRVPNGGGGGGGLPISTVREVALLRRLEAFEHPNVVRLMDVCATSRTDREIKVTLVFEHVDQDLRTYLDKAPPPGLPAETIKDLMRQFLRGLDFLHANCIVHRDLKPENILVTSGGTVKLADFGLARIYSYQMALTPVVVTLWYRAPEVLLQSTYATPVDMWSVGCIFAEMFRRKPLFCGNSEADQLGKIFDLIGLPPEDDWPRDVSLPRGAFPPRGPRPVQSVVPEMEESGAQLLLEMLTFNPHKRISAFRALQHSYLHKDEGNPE
Chain of human cyclin D1-CDK4 (P24385 whole entry partner): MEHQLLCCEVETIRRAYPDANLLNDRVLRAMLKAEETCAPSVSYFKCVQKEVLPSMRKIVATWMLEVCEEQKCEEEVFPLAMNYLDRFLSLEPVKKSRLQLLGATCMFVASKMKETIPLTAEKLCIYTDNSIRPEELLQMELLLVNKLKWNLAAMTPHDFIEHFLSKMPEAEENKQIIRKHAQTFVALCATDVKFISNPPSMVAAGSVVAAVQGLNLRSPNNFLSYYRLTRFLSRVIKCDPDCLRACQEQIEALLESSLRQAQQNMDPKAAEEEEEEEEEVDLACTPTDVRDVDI

IC50 [1] [nM]	IC50 [2] [nM]	IC50 [3] [nM]	IC50 [4] [nM]	Structure (SMILES)
12	2890	1280	1750	COc1ccc(C(=O)c2sc(Nc3ccc(N4CCC(N5CCCC5)CC4)cc3)nc2N)cc1F [Example 23]
32	860	270	1220	Nc1nc(Nc2ccc(N3CCC(N4CCCC4)CC3)cc2)sc1C(=O)c1cccc(F)c1 [Example 24, {4-Amino-2-[4-(4-pyrrolidin-1-yl-piperidin-1-yl)-phenylamino]-thiazol-5-yl}-(3-fluoro-phenyl)-methanone]
5260	–	4050	15	Nc1nc(Nc2ccc(N3CCC(N4CCCC(O)C4)CC3)cc2)sc1C(=O)c1ccc2c(c1)OCCO2 (stereo not shown) [Example 38, {4-Amino-2-[4-(3-hydroxy-[1,4′]bipiperidinyl-1′-yl)-phenylamino]-thiazol-5-yl}-(2,3-dihydro-benzo[1,4]dioxin-6-yl)-methanone]
133	4440	2990	–	CN(C)C1CCN(c2ccc(Nc3nc(N)c(C(=O)c4ccc(Cl)c([N+](=O)[O-])c4)s3)cc2)CC1 [Example 87, {4-Amino-2-[4-(4-dimethylamino-piperidin-1-yl)-phenylamino]-thiazol-5-yl}-(4-chloro-3-nitro-phenyl)-methanone]
100	2260	510	–	Nc1nc(Nc2ccc(N3CCC(N4CCCCC4)CC3)cc2)sc1C(=O)c1cccc([N+](=O)[O-])c1 [Example 89, [4-Amino-2-(4-[1,4′]bipiperidinyl-1′-yl-phenylamino)-thiazol-5-yl]-(3-nitro-phenyl)-methanone]
37	4060	1180	–	Nc1nc(Nc2ccc(N3CCC(N4CCCC4)CC3)cc2)sc1C(=O)c1cccc(O)c1 [Example 96, {4-Amino-2-[4-(4-pyrrolidin-1-yl-piperidin-1-yl)-phenylamino]-thiazol-5-yl}-(3-hydroxy-phenyl)-methanone]
35	550	450	–	Nc1nc(Nc2ccc(N3CCC(N4CCOCC4)CC3)cc2)sc1C(=O)c1cccc(F)c1 [Example 99, {4-Amino-2-[4-(4-morpholin-4-yl-piperidin-1-yl)-phenylamino]-thiazol-5-yl}-(3-fluoro-phenyl)-methanone]
29	4800	1990	–	COc1cccc(C(=O)c2sc(Nc3ccc(N4CCC(N5CCOCC5)CC4)cc3)nc2N)c1 [Example 102, {4-Amino-2-[4-(4-morpholin-4-yl-piperidin-1-yl)-phenylamino]-thiazol-5-yl}-(3-methoxy-phenyl)-methanone]
36	3340	1520	–	Nc1nc(Nc2ccc(N3CCC(N4CCOCC4)CC3)cc2)sc1C(=O)c1cccc(O)c1 [Example 103, {4-Amino-2-[4-(4-morpholin-4-yl-piperidin-1-yl)-phenylamino]-thiazol-5-yl}-(3-hydroxy-phenyl)-methanone]
39	1510	1280	–	Nc1nc(Nc2ccc(N3CCC(N4CCOCC4)CC3)cc2)sc1C(=O)c1cccc([N+](=O)[O-])c1 [Example 105, {4-Amino-2-[4-(4-morpholin-4-yl-piperidin-1-yl)-phenylamino]-thiazol-5-yl}-(3-nitro-phenyl)-methanone]
52	4830	2270	–	COc1ccc(C(=O)c2sc(Nc3ccc(N4CCC(N5CCOCC5)CC4)cc3)nc2N)cc1[N+](=O)[O-] [Example 106, {4-Amino-2-[4-(4-morpholin-4-yl-piperidin-1-yl)-phenylamino]-thiazol-5-yl}-(4-methoxy-3-nitro-phenyl)-methanone]
25	–	1990	2700	Cc1cccc(C(=O)c2sc(Nc3ccc(N4CCC(N(C)C)CC4)cc3)nc2N)c1 [Example 110, {4-Amino-2-[4-(4-dimethylamino-piperidin-1-yl)-phenylamino]-thiazol-5-yl}-tolyl-methanone]
25	–	–	1610	Cc1cccc(C(=O)c2sc(Nc3ccc(N4CCC(N5CCCCC5)CC4)cc3)nc2N)c1 [Example 111, [4-Amino-2-(4-[1,4′]bipiperidinyl-1′-yl-phenylamino)-thiazol-5-yl]-tolyl-methanone]
67	4320	11400	–	CCOC(=O)c1cc2ccc(C(=O)c3sc(Nc4ccc(N5CCC(N6CCCC6)CC5)cc4)nc3N)cc2[nH]1 [Example 124]
32	–	385	1400	CCNC1CCN(c2ccc(Nc3nc(N)c(C(=O)c4cccc(F)c4)s3)cc2)CC1 [Example 137, {4-Amino-2-[4-(4-ethylamino-piperidin-1-yl)-phenylamino]-thiazol-5-yl}-(3-fluoro-phenyl)-menthanone]

Structure (SMILES)	IC50 [1] [nM]	IC50 [2] [nM]	IC50 [3] [nM]	IC50 [4] [nM]
CN(C)C1CCN(c2ccc(Nc3nc(N)c(C(=O)c4cccc(C#N)c4)s3)cc2)CC1 [Example 88, 3-{4-Amino-2-[4-(4-dimethylamino-piperidin-1-yl)-phenylamino]-thiazole-5-carbonyl}-benzonitrile]	15	3910	940	–
N#Cc1cccc(C(=O)c2sc(Nc3ccc(N4CCC(N5CCOCC5)CC4)cc3)nc2N)c1 [Example 104, 3-{4-Amino-2-[4-(4-morpholin-4-yl-piperidin-1-yl)-phenylamino]-thiazole-5-carbonyl}-benzonitrile]	31	2000	1280	–
